This note sets out measurements from patent publication US12409171B2, “Pharmaceutically active pyrazolo-pyridone modulators of DCN1/2-mediated cullin neddylation” (UNIVERSITY OF KENTUCKY RESEARCH FOUNDATION, priority 2019, dated 2025).

The target of the test is DCN1 (Homo sapiens (Human), UniProt Q96GG9). The test can be described thus: TR-FRET binding assay (biotin-DCN1 / Ac-UBE2M12-AlexaFluor488). The following applies: mean ± SD (n); read-out: DCN1_TRFRET Mean EC50. As for the experimental part: • IC50 values were generated using our TR-FRET binding assay and are represented as the mean of three replicates with errors reported as the standard deviation.
Chain of DCN1 (Q96GG9 whole entry): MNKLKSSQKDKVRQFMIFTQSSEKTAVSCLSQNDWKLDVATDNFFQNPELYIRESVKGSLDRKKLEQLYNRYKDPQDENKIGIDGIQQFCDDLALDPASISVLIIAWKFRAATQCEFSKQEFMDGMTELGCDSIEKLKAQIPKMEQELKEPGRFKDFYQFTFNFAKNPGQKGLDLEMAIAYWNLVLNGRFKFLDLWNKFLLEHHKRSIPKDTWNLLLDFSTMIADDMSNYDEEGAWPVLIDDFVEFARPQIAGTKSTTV
The assay cocktail was then incubated for 1 h at room temperature and distributed using a WellMate instrument (Matrix). Compounds to be screened were added to assay plates from DMSO stock solutions by pin transfer using 50SS pins (V&P Scientific). […] All compounds were tested in triplicate or more.
On the technique in general: Time-resolved FRET reads energy transfer from a long-lived donor to a nearby acceptor.
Broadly, the EC50 is the concentration that produces a half-maximal response. With `CCOC(=O)Cn1nc(C)c2c1N(CC)C(=O)[C@@H](NC(=O)c1cccc(C(F)(F)F)c1)[C@H]2c1ccc(F)cc1` [RG-0014038, ethyl 2-[(4S,5S)-7-ethyl-4-(4-fluorophenyl)-3-methyl-6-oxo-5-[3-(trifluoromethyl)benzamido]-1H,4H,5H,6H,7H-pyrazolo[3,4-b]pyridin-1-yl]acetate], the EC50 stood at 3530 ± 458 nM.

Regarding `CCCN1C(=O)[C@@H](N(CCC)C(=O)c2cccc(C(F)(F)F)c2)[C@@H](c2ccc(F)cc2)c2c(C)nn(-c3ccccc3)c21` [RG-0009516, N-[(4S,5S)-4-(4-fluorophenyl)-3-methyl-6-oxo-1-phenyl-7-propyl-1H,4H,5H,6H,7H-pyrazolo[3,4-b]pyridin-5-yl]-N-propyl-3-(trifluoromethyl)benzamide], the EC50 is above 36500 nM.

Turning to `CCN1C(=O)[C@@H](NC(=O)c2cccc(C(F)(F)F)c2)[C@@H](c2cncs2)c2c(C)nn(-c3ccccc3)c21` [RG-0014005, N-[(4S,5S)-7-ethyl-3-methyl-6-oxo-1-phenyl-4-(1,3-thiazol-5-yl)-1H,4H,5H,6H,7H-pyrazolo[3,4-b]pyridin-5-yl]-3-(trifluoromethyl)benzamide], the EC50 is 1920 ± 75.2 nM.

In the case of `CCN1C(=O)[C@@H](NC(=O)c2cccc(C(F)(F)F)c2)[C@@H](c2ccc(F)c(C(F)(F)F)c2)c2c(C)nn(-c3ccccc3)c21` [RG-0013990, N-[(4S,5S)-7-ethyl-4-[4-fluoro-3-(trifluoromethyl)phenyl]-3-methyl-6-oxo-1-phenyl-1H,4H,5H,6H,7H-pyrazolo[3,4-b]pyridin-5-yl]-3-(trifluoromethyl)benzamide], the EC50 stood at 4810 ± 152 nM.

For `COC(=O)CN1C(=O)[C@@H](NC(=O)c2cccc(C(F)(F)F)c2)[C@@H](c2ccc(F)cc2)c2c(C)nn(-c3ccccc3)c21` [RG-0013841, methyl 2-[(4S,5S)-4-(4-fluorophenyl)-3-methyl-6-oxo-1-phenyl-5-[3-(trifluoromethyl)benzamido]-1H,4H,5H,6H,7H-pyrazolo[3,4-b]pyridin-7-yl]acetate], the EC50 came out at 5540 ± 1080 nM.

As to `CCN1C(=O)[C@@H](NC(=O)c2cccc(OC)c2)[C@@H](c2ccc(F)cc2)c2c(C)nn(-c3ccccc3)c21` [RG-0013979, N-[(4S,5S)-7-ethyl-4-(4-fluorophenyl)-3-methyl-6-oxo-1-phenyl-1H,4H,5H,6H,7H-pyrazolo[3,4-b]pyridin-5-yl]-3-methoxybenzamide], the EC50 was determined as 629 ± 64.8 nM.

On to `CCN1C(=O)[C@@H](NC(=O)c2cccc(C)c2)[C@@H](c2ccc(F)cc2)c2c(CN)nn(-c3ccccc3)c21` [RG-0009512, N-[(4S,5S)-3-(aminomethyl)-7-ethyl-4-(4-fluorophenyl)-6-oxo-1-phenyl-1H,4H,5H,6H,7H-pyrazolo[3,4-b]pyridin-5-yl]-3-methylbenzamide], for which the EC50 was determined as 171 ± 17.9 nM.

For `CCN1C(=O)[C@@H](NC(=O)c2cccc(C(C)C)c2)[C@@H](c2ccc(F)cc2)c2c(C)nn(-c3ccccc3)c21` [RG-0014166, N-[(4S,5S)-7-ethyl-4-(4-fluorophenyl)-3-methyl-6-oxo-1-phenyl-1H,4H,5H,6H,7H-pyrazolo[3,4-b]pyridin-5-yl]-3-(propan-2-yl)benzamide], the EC50 was found to be 473 ± 70.7 nM.

For the molecule `CCN1C(=O)[C@@H](NC(=O)c2cccc(C)c2)[C@@H](c2ccc(F)cc2)c2c(C)nn(C3CC3)c21` [RG-0008872, N-[(4S,5S)-1-cyclopropyl-7-ethyl-4-(4-fluorophenyl)-3-methyl-6-oxo-1H,4H,5H,6H,7H-pyrazolo[3,4-b]pyridin-5-yl]-3-methylbenzamide], the EC50 worked out at 190 ± 35.6 nM.

As to `CCN1C(=O)[C@@H](NC(=O)c2cccc(Br)c2)[C@@H](c2ccc(F)cc2)c2c(C)nn(-c3ccccc3)c21` [RG-0013061, 3-bromo-N-[(4S,5S)-7-ethyl-4-(4-fluorophenyl)-3-methyl-6-oxo-1-phenyl-1H,4H,5H,6H,7H-pyrazolo[3,4-b]pyridin-5-yl]benzamide], the EC50 is 485 ± 41.1 nM.

Take `COCN1C(=O)[C@@H](NC(=O)c2cccc(C)c2)[C@@H](c2ccc(F)cc2)c2c(C)nn(-c3ccccc3)c21` [RG-0008859, N-[(4S,5S)-4-(4-fluorophenyl)-7-(methoxymethyl)-3-methyl-6-oxo-1-phenyl-1H,4H,5H,6H,7H-pyrazolo[3,4-b]pyridin-5-yl]-3-methylbenzamide]: the EC50 was 491 ± 25.5 nM.

Regarding `CCN1C(=O)[C@@H](NC(=O)c2cccc(C(F)(F)F)c2)[C@@H](c2ccc(F)cc2)c2c(CBr)nn(-c3ccccc3)c21` [RG-0014144, N-[(4S,5S)-3-(bromomethyl)-7-ethyl-4-(4-fluorophenyl)-6-oxo-1-phenyl-1H,4H,5H,6H,7H-pyrazolo[3,4-b]pyridin-5-yl]-3-(trifluoromethyl)benzamide], the EC50 stood at 186 ± 32.6 nM.

On to `CCN1C(=O)[C@@H](NC(=O)c2cccc(C(F)(F)F)c2)[C@@H](c2ccc(F)cc2)c2c(CN3CCCC3)nn(-c3ccccc3)c21` [RG-0014154, N-[(4S,5S)-7-ethyl-4-(4-fluorophenyl)-6-oxo-1-phenyl-3-[(pyrrolidin-1-yl)methyl]-1H,4H,5H,6H,7H-pyrazolo[3,4-b]pyridin-5-yl]-3-(trifluoromethyl)benzamide], for which the concentration for a half-maximal effect (EC50) was determined as 83.5 ± 9.39 nM.

On to `CCN1C(=O)[C@@H](NC(=O)c2cccc(C(F)(F)F)c2)[C@@H](c2ccc(F)nc2)c2c(CO)nn(-c3ccccc3)c21` [RG-0013992, N-[(4S,5S)-7-ethyl-4-(6-fluoropyridin-3-yl)-3-(hydroxymethyl)-6-oxo-1-phenyl-1H,4H,5H,6H,7H-pyrazolo[3,4-b]pyridin-5-yl]-3-(trifluoromethyl)benzamide], for which the EC50 was determined as 157 ± 19.2 nM.

As to `CCN1C(=O)[C@@H](NC(=O)c2cccc(C(F)(F)F)c2)[C@@H](c2ccc(F)cc2)c2c(CN3CCC(F)CC3)nn(-c3ccccc3)c21` [RG-0014147, N-[(4S,5S)-7-ethyl-4-(4-fluorophenyl)-3-[(4-fluoropiperidin-1-yl)methyl]-6-oxo-1-phenyl-1H,4H,5H,6H,7H-pyrazolo[3,4-b]pyridin-5-yl]-3-(trifluoromethyl)benzamide], the EC50 worked out at 112 ± 16 nM.

As to `CCN1C(=O)[C@@H](NC(=O)c2cccc(C(F)(F)F)c2)[C@@H](c2ccc(F)nc2)c2c(CN)nn(-c3ccccc3)c21` [RG-0014006, N-[(4S,5S)-3-(aminomethyl)-7-ethyl-4-(6-fluoropyridin-3-yl)-6-oxo-1-phenyl-1H,4H,5H,6H,7H-pyrazolo[3,4-b]pyridin-5-yl]-3-(trifluoromethyl)benzamide], the EC50 is 135 ± 7 nM.

Turning to `CCN1C(=O)[C@@H](NC(=O)c2cccc(C(F)(F)F)c2)[C@@H](c2cc(C)cs2)c2c(C)nn(-c3ccccc3)c21` [RG-0013987, N-[(4S,5S)-7-ethyl-3-methyl-4-(4-methylthiophen-2-yl)-6-oxo-1-phenyl-1H,4H,5H,6H,7H-pyrazolo[3,4-b]pyridin-5-yl]-3-(trifluoromethyl)benzamide], the EC50 amounted to 3100 ± 559 nM.

For the molecule `CCN1C(=O)[C@@H](NC(=O)c2cccc(F)c2)[C@@H](c2ccc(F)cc2)c2c(C)nn(-c3ccccc3)c21` [RG-0013062, N-[(4S,5S)-7-ethyl-4-(4-fluorophenyl)-3-methyl-6-oxo-1-phenyl-1H,4H,5H,6H,7H-pyrazolo[3,4-b]pyridin-5-yl]-3-fluorobenzamide], the EC50 came to 1810 ± 153 nM.

On to `CC(=O)N1C(=O)[C@@H](NC(=O)c2cccc(C)c2)[C@@H](c2ccc(F)cc2)c2c(C)nn(-c3ccccc3)c21` [RG-0005656, N-[(4S,5S)-7-acetyl-4-(4-fluorophenyl)-3-methyl-6-oxo-1-phenyl-1H,4H,5H,6H,7H-pyrazolo[3,4-b]pyridin-5-yl]-3-methylbenzamide], for which the EC50 came to 5640 ± 827 nM.

Consider `CCOC1=Nc2c(c(C)nn2-c2ccccc2)[C@H](c2ccc(F)cc2)[C@@H]1NC(=O)c1cccc(C(F)(F)F)c1` [RG-0009518, N-[(4S,5S)-6-ethoxy-4-(4-fluorophenyl)-3-methyl-1-phenyl-1H,4H,5H-pyrazolo[3,4-b]pyridin-5-yl]-3-(trifluoromethyl)benzamide], for which the EC50 was above 36500 nM.

Turning to `CCN1C(=O)[C@@H](NC(=O)c2cccc(I)c2)[C@@H](c2ccc(F)cc2)c2c(C)nn(-c3ccccc3)c21` [RG-0013060, N-[(4S,5S)-7-ethyl-4-(4-fluorophenyl)-3-methyl-6-oxo-1-phenyl-1H,4H,5H,6H,7H-pyrazolo[3,4-b]pyridin-5-yl]-3-iodobenzamide], the EC50 was 461 ± 29.4 nM.

As to `Cc1cccc(C(=O)N[C@@H]2C(=O)N(CC(F)(F)F)c3c(c(C)nn3-c3ccccc3)[C@@H]2c2ccc(F)cc2)c1` [RG-0009509, N-[(4S,5S)-4-(4-fluorophenyl)-3-methyl-6-oxo-1-phenyl-7-(2,2,2-trifluoroethyl)-1H,4H,5H,6H,7H-pyrazolo[3,4-b]pyridin-5-yl]-3-methylbenzamide], the EC50 was 7000 ± 1710 nM.

Turning to `CCN1C(=O)[C@@H](NC(=O)c2cccc(Oc3ccccc3)c2)[C@@H](c2ccc(F)cc2)c2c(C)nn(-c3ccccc3)c21` [RG-0013976, N-[(4S,5S)-7-ethyl-4-(4-fluorophenyl)-3-methyl-6-oxo-1-phenyl-1H,4H,5H,6H,7H-pyrazolo[3,4-b]pyridin-5-yl]-3-phenoxybenzamide], the EC50 was found to be 5930 ± 606 nM.

On to `Cc1nn(-c2ccccc2)c2c1[C@H](c1ccc(F)cc1)[C@H](NC(=O)c1cccc(C(F)(F)F)c1)C(=O)N2CCO[Si](C)(C)C(C)(C)C` [RG-0014164, N-[(4S,5S)-7-{2-[(tert-butyldimethylsilyl)oxy]ethyl}-4-(4-fluorophenyl)-3-methyl-6-oxo-1-phenyl-1H,4H,5H,6H,7H-pyrazolo[3,4-b]pyridin-5-yl]-3-(trifluoromethyl)benzamide], for which the EC50 was above 36500 nM.

Consider `CCN1C(=O)[C@@H](NC(=O)c2cccc(C(F)(F)F)c2)[C@@H](c2ccc(F)cc2)c2c(C)nn(-c3cccc(C)c3)c21` [RG-0014035, N-[(4S,5S)-7-ethyl-4-(4-fluorophenyl)-3-methyl-1-(3-methylphenyl)-6-oxo-1H,4H,5H,6H,7H-pyrazolo[3,4-b]pyridin-5-yl]-3-(trifluoromethyl)benzamide], for which the EC50 stood at 388 ± 38.5 nM.
